US10975077B2 (Novira Therapeutics, Inc., priority 2016, dated 2021)
pEC50: −log10 of the molar value.

The compounds below were run on HBV (encapsidated HBV DNA, HepG2.2.15 cells) (assay: HBV replication inhibition assay, BDNA assay in HepG2.2.15 cells). Conditions: Activity in BDNA-assay.
Assay type: cell-based
Protocol: HBV replication inhibition by the disclosed compounds were determined in cells infected or transfected with HBV, or cells with stably integrated HBV, such as HepG2.2.15 cells (Sells et al. 1987). In this example, HepG2.2.15 cells were maintained in cell culture medium containing 10% fetal bovine serum (FBS), Geneticin, L-glutamine, penicillin and streptomycin. HepG2.2.15 cells were seeded in 96-well plates at a density of 40,000 cells/well and were treated with serially diluted compounds at a final DMSO concentration of 0.5% either alone or in combination by adding drugs in a checker box format. Cells were incubated with compounds for three days, after which medium was removed and fresh medium containing compounds was added to cells and incubated for another three days. At day 6, supernatant was removed and treated with DNase at 37° C. for 60 minutes, followed by enzyme inactivation at 75° C. for 15 minutes. Encapsidated HBV DNA was released from the virions and covalently linked HBV polymerase by incubating in lysis buffer (Affymetrix QS0010) containing 2.5 μg proteinase K at 50° C. for 40 minutes. HBV DNA was denatured by addition of 0.2 M NaOH and detected using a branched DNA (BDNA) QuantiGene assay kit according to manufacturer recommendation (Affymetrix). HBV DNA levels were also quantified using qPCR, based on amplification of encapsidated HBV DNA extraction with QuickExtraction Solution (Epicentre Biotechnologies) and amplification of HBV DNA using HBV specific PCR probes that can hybridize to HBV DNA and a fluorescently labeled probe for quantitation. In addition, cell viability of HepG2.2.15 cells incubated with test compounds alone or in combination was determined by using CellTitre-Glo reagent according to the manufacturer protocol (Promega). The mean background signal from wells containing only culture medium was subtracted from all other samples, and percent inhibition at each compound concentration was calculated by normalizing to signals from HepG2.2.15 cells treated with 0.5% DMSO using equation E1. % inhibition=(DMSOave−Xi)/DMSOave×100% E1: where DMSOave is the mean signal calculated from the wells that were treated with DMSO control (0% inhibition control) and Xi is the signal measured from the individual wells. EC50 values, effective concentrations that achieved 50% inhibitory effect, were determined by non-linear fitting using Graphpad Prism software (San Diego, Calif.) and equation E2: Y=Y min+(Y max −Y min)/(1+10(Log EC50−X)×HillSlope) E2: […]
where Y represents percent inhibition values and X represents the logarithm of compound concentrations.
Selected disclosed compounds were assayed in the HBV replication assay (BDNA assay), as described above and a representative group of these active compounds is shown in Table 6.

Compound | pEC50
C[C@@H]1Cc2nn3c(c2CN1C(=O)Nc1ccc(F)c(C#N)c1F)C(=O)N(C)CC(CO)C3 (single isomer, unassigned) [Compound 088_D2, (3R,8R*)—N-(3-cyano-2,4-difluorophenyl)-8-(hydroxymethyl)-3,10-dimethyl-11-oxo-1,3,4,7,8,9,10,11-octahydro-2H-pyrido[4′,3′:3,4]pyrazolo[1,5-a][1,4]diazepine-2-carboxamide] | 7.00 to 9.00
CN1CC(CNCC(F)F)Cn2nc3c(c2C1=O)CN(C(=O)Nc1ccc(F)c(Br)c1F)CC3 (single isomer, unassigned) [Compound 129_E1, (R*)—N-(3-bromo-2,4-difluorophenyl)-8-(((2,2-difluoroethyl)amino)methyl)-10-methyl-11-oxo-1,3,4,7,8,9,10,11-octahydro-2H-pyrido[4′,3′:3,4]pyrazolo[1,5-a][1,4]diazepine-2-carboxamide] | 6.30 to 7.00
C[C@@H]1Cc2nn3c(c2CN1C(=O)Nc1ccc(F)c(C(F)(F)F)c1F)C(=O)N(C)CC(CO)C3 (single isomer, unassigned) [Compound 083_D2, (3R,8R*)—N-(2,4-difluoro-3-(trifluoromethyl)phenyl)-8-(hydroxymethyl)-3,10-dimethyl-11-oxo-1,3,4,7,8,9,10,11-octahydro-2H-pyrido[4′,3′:3,4]pyrazolo[1,5-a][1,4] diazepine-2-carboxamide] | 7.00 to 9.00
CN1CC(C(O)CCF)Cn2nc3c(c2C1=O)CN(C(=O)Nc1ccc(F)c(Cl)c1)CC3 (centres unmarked) [Compound 115, N-(3-chloro-4-fluoro-phenyl)-8-(3-fluoro-1-hydroxy-propyl)-10-methyl-1-oxo-1,3,4,7,8,9-hexahydropyrido[2,3]pyrazolo[2,4-b][1,4]diazepine-2-carboxamide] | 7.00 to 9.00

Same assay, conditions: Hepatitis B virus, HepG2.2.15, Activity in BDNA-assay

Compound | pEC50
O=C(Nc1ccc(F)c(Cl)c1)N1CCc2nn3c(c2C1)C(=O)N(CC(F)F)CCC3 [Compound 038, N-(3-chloro-4-fluorophenyl)-10-(2,2-difluoroethyl)-11-oxo-1,3,4,7,8,9,10,11-octahydro-2H-pyrido[4′,3′:3,4]pyrazolo[1,5-a][1,4]diazepine-2-carboxamide] | 7.00 to 9.00
CN1CC(CN2CCCCC2)Cn2nc3c(c2C1=O)CN(C(=O)Nc1ccc(F)c(Cl)c1)CC3 (centres unmarked) [Compound 064, N-(3-chloro-4-fluorophenyl)-10-methyl-11-oxo-8-(piperidin-1-ylmethyl)-1,3,4,7,8,9,10,11-octahydro-2H-pyrido[4′,3′:3,4]pyrazolo[1,5-a][1,4]diazepine-2-carboxamide] | 6.30 to 7.00
CN1CC(O)(CO)Cn2nc3c(c2C1=O)CN(C(=O)Nc1ccc(F)c(Cl)c1)CC3 (centres unmarked) [Compound 003] | 6.00 to 6.30
CN1CC(N2CCC2)Cn2nc3c(c2C1=O)CN(C(=O)Nc1ccc(F)c(Cl)c1)CC3 (centres unmarked) [Compound 023, 8-(azetidin-1-yl)-N-(3-chloro-4-fluorophenyl)-10-methyl-11-oxo-1,3,4,7,8,9,10,11-octahydro-2H-pyrido[4′,3′:3,4]pyrazolo[1,5-a][1,4]diazepine-2-carboxamide] | 7.00 to 9.00
C[C@@H]1Cc2nn3c(c2CN1C(=O)Nc1ccc(F)c(Cl)c1)C(=O)N(CC(F)F)CCC3 [Compound 072, (3R)—N-(3-chloro-4-fluorophenyl)-10-(2,2-difluoroethyl)-3-methyl-11-oxo-1,3,4,7,8,9,10,11-octahydro-2H-pyrido[4′,3′:3,4]pyrazolo[1,5-a][1,4]diazepine-2-carboxamide] | 7.00 to 9.00
CN1CC(C(C)(C)O)Cn2nc3c(c2C1=O)CN(C(=O)Nc1ccc(F)c(Cl)c1)CC3 (centres unmarked) [Compound 033, N-(3-chloro-4-fluorophenyl)-8-(2-hydroxypropan-2-yl)-10-methyl-11-oxo-3,4,8,9,10,11-hexahydro-1H-pyrido[4′,3′:3,4]pyrazolo[1,5-a][1,4]diazepine-2 (7H)-carboxamide] | 7.00 to 9.00
CC(O)C1CN(C)C(=O)c2c3c(nn2C1)CCN(C(=O)Nc1ccc(F)c(Cl)c1)C3 (centres unmarked) [Compound 034, N-(3-chloro-4-fluorophenyl)-8-(1-hydroxyethyl)-10-methyl-11-oxo-1,3,4,7,8,9,10,11-octahydro-2H-pyrido[4′,3′:3,4]pyrazolo[1,5-a][1,4]diazepine-2-carboxamide] | 6.30 to 7.00
